Results reported in patent publication EP0539170A1, “Benzodiazepine derivatives and their use as antagonists of cholecystokinin and/or gastrin receptors” (priority 1991, dated 1993).
pIC50: −log10 of the molar value. Structures can show the parent of a compound that is named as a salt.

Biological target: T1, CCK Receptor (Pancreas) (Rattus norvegicus, UniProt P30551)
T1 construct: The whole pancreas was dissected free of fat tissue and was homogenized; from tissue; host or cells: rat pancreas membrane homogenate
T1 sequence (P30551 1-444): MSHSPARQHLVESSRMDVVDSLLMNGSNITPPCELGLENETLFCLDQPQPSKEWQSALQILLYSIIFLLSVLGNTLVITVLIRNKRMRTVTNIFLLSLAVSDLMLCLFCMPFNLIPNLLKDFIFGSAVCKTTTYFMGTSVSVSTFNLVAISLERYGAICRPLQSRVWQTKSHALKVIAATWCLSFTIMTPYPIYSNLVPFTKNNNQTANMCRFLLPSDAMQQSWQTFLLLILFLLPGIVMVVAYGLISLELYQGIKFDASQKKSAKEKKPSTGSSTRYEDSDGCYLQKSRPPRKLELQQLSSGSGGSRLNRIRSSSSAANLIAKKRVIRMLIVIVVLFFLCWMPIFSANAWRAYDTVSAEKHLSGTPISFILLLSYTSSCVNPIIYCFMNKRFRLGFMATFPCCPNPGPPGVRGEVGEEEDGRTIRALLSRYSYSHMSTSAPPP
Experiment: CCK Receptor Binding (Pancreas), inhibition of specific 125I-CCK-8 binding
Parameters: species or system Sprague-Dawley rats
Settings: rat whole pancreas membranes; 50 pM 125I-CCK-8; 25°C for 2 hours
Protocol: CCK-8 sulphated was radiolabelled with ¹²⁵I-Bolton Hunter reagent (2000 Ci/mmole). Receptor binding was performed according to Chang and Lotti (Proc. Natl. Acad. Sci. 83, 4923-4926, 1986) with minor modifications.
Male Sprague-Dawley rats (150-200g) were sacrificed by decapitation. The whole pancreas was dissected free of fat tissue and was homogenized in 25 volumes of ice-cold 10 mM N-2-hydroxyethyl-piperazine-N′-2-ethane sulphonic acid (HEPES) buffer with 0.1% soya bean trypsin inhibitor (pH 7.4 at 25°C) with a Kinematica Polytron. The homogenates were centrifuged at 47,800 g for 10 min. Pellets were resuspended in 10 volumes of binding assay buffer (20mM (HEPES)), 1mM ethylene glycol-bis-(β-aminoethylether-N,N′-tetraacetic acid) (EGTA), 5mM MgCl₂, 150 mM NaCl, bacitracin 0.25 mg/ml, soya bean trypsin inhibitor 0.1 mg/ml, and bovine serum albumin 2 mg/ml pH 6.5 at 25°C) using a Teflon (trademark) homogenizer, 15 strokes at 500 rpm. The homogenate was further diluted in binding assay buffer to give a final concentration of 0.5 mg original wet weight/1 ml buffer. […] All assays were run in duplicate. The reaction mixtures were incubated at 25°C for 2 hours and the reaction terminated by rapid filtration (Brandell 24 well cell harvester) over Whatman GF/C filters, washing 3 x 4 mls with ice-cold 100 Mm NaCl. The radioactivity on the filters was counted with a LKB gamma counter.
Drug displacement studies were performed with at least 10 concentrations of compounds of Formula I and the IC₅₀ values were determined by regression analysis IC₅₀ refers to the concentration of the compound required to inhibit 50% of specific binding of ¹²⁵I-CCK-8.

pIC50	Structure (SMILES)
6.92	CCCN1C(=O)C(NC(=O)Nc2cccc(C)c2)N=C(N2CCCCC2)c2ccccc21 (racemic) [Example 44, N-[3(R,S)-2,3-Dihydro-2-oxo-5-(piperidin-1-yl)-1-propyl-1H-1,4-benzodiazepin-3-yl]-N′-[3-methylphenyl] urea]
< 5.52	Cc1cccc(NC(=O)NC2N=C(N3CCCNCC3)c3ccccc3N(C)C2=O)c1 (racemic) [Example 16, N-[3(R,S)-2,3-Dihydro-5-(homopiperazin-1-yl)-1-methyl-2-oxo-1H-1,4-benzodiazepin-3-yl]-N′-[3-methylphenyl] urea]
8.00	Cc1cccc(NC(=O)NC2N=C(N3CCCCCC3)c3ccccc3N(C)C2=O)c1 (racemic) [Example 20, N-[3(R,S)-2,3-Dihydro-5-(homopiperidin-1-yl)-1-methyl-2-oxo-1H-1,4-benzodiazepin-3-yl]-N′-[3-methylphenyl] urea]
5.62	CCCN1C(=O)C(NC(=O)Nc2cccc(CC)c2)N=C(N2CCN(C)CC2)c2ccccc21 (racemic) [Example 21, N-[3(R,S)-2,3-Dihydro-5-(4-methylpiperazin-1-yl)-2-oxo-1-propyl-1H-1,4-benzodiazepin-3-yl]-N#MIN#-[3-ethylphenyl] urea]
< 5.52	CCNC(=O)c1cccc(NC(=O)NC2N=C(N3CCN(C)CC3)c3ccccc3N(C)C2=O)c1 (racemic) [Example 18, N-[3(R,S)-2,3-Dihydro-1-methyl-2-oxo-5-(4-methylpiperazin-1-yl)-1H-1,4-benzodiazepin-3-yl]-N′-[3-(N-ethylcarboxamido)phenyl] urea]
< 5.52	Cc1cccc(NC(=O)NC2N=C(N3CCCCCC3)c3ccccc3N(C)C2=O)c1 (single isomer, unassigned; (-)) [Example 28, (-)-N-[2,3-Dihydro-5-(homopiperidin-1-yl)-1-methyl-2-oxo-1H-1,4-benzodiazepin-3-yl]-N′-[3-methylphenyl] urea]
6.40	CC(C)c1ccc(NC(=O)NC2N=C(N3CCCCCC3)c3ccccc3N(C)C2=O)cc1 (racemic) [Example 54, N-[3(R,S)-2,3-Dihydro-5-(homopiperidin-1-yl)-1-methyl-2-oxo-1H-1,4-benzodiazepin-3-yl]-N′-[4-isopropylphenyl] urea]
< 5.52	CCCN1C(=O)C(NC(=O)Nc2ccc(N(C)C)cc2)N=C(N2CCN(C)CC2)c2ccccc21 (racemic) [Example 53, N-[3(R,S)-2,3-Dihydro-5-(4-methylpiperazin-1-yl)-2-oxo-1-propyl-1H-1,4-benzodiazepin-3-yl]-#′-[4-(dimethylamino)phenyl] urea]
7.44	Cc1cccc(NC(=O)NC2N=C(N3CCCCCCCC3)c3ccccc3N(C)C2=O)c1 (racemic) [Example 61, N-[3(R,S)-2,3-Dihydro-1-methyl-5-(octamethyleneimin-1-yl)-2-oxo-1H-1,4-benzodiazepin-3-yl]-N#MIN#-[3-methylphenyl] urea]
5.55	Cc1cccc(NC(=O)NC2N=C(N3CCCN(C)CC3)c3ccccc3N(C)C2=O)c1 (racemic) [Example 17, N-[3(R,S)-2,3-Dihydro-1-methyl-5-(4-methylhomopiperazin-1-yl)-2-oxo-1H-1,4-benzodiazepin-3-yl]-N′-[3-methylphenyl] urea]
6.29	CCCN1C(=O)C(NC(=O)Nc2cccc(C)c2)N=C(N2CCSCC2)c2ccccc21 (single isomer, unassigned; (-)) [Example 69, (-)-N-[2,3-Dihydro-2-oxo-1-propyl-5-(thiomorpholin-4-yl)-1H-1,4-benzodiazepin-3-yl]-N′-[3-methylphenyl] urea hydrochloride]
8.05	CN1C(=O)C(NC(=O)Nc2ccc3c(c2)CCC3)N=C(N2CCCCCC2)c2ccccc21 (single isomer, unassigned; (+)) [Example 59, (+)-N-(2,3-Dihydro-5-(homopiperidin-1-yl)-1-methyl-2-oxo-1H-1,4-benzodiazepin-3-yl]-N′-[5-indanyl] urea hydrochloride]
